Data reported in ChEMBL document CHEMBL4602617, “Discovery and optimization of heteroaryl piperazines as potent and selective PI3Kδ inhibitors” (Bioorg Med Chem Lett, 2020).

How the values were obtained:
Sphingosine kinase 1 = Sphingosine kinase 1 (Homo sapiens, UniProt Q9NYA1); assay: Inhibition of recombinant full length human GST-tagged SPHK1 expressed in baculovirus expression system using sphingosine lipid as substrate incubated for 60 mins in presence of ATP by Adapta assay
[1] = target: T1, Tyrosine-protein kinase JAK2 (Homo sapiens, UniProt O60674); assay: Inhibition of recombinant GST-tagged human JAK2-JH1/JH2 domain (574 to 1154 residues) expressed in baculovirus expression system using Tyr 06 as substrate after 1 hr in presence of ATP by Z'LYTE assay
[2] = target: 5-hydroxytryptamine receptor 6 (Homo sapiens) (UniProt P50406); assay: Displacement of [3H] lysergic acid diethylamide from full length human recombinant 5HT6 receptor expressed in HeLa/E6-7 cells at 10 uM measured after 120 mins by radiometric scintillation analysis relative to control; format: cell-based
[3] = target: Epidermal growth factor receptor (Homo sapiens, UniProt P00533, L861Q); assay: Inhibition of human recombinant GST-tagged EGFR L861Q mutant cytoplasmic domain expressed in baculovirus expression system using tyrosine 4 peptide as substrate after 60 mins in presence of ATP FRET based Z'-LYTE assay
[4] = target: Death-associated protein kinase 1 (Homo sapiens, UniProt P53355); assay: Inhibition of recombinant human GST-tagged DAPK1 catalytic domain (1 to 363 residues) expressed in baculovirus expression system using ZIPtide peptide as substrate incubated for 60 mins in presence of ATP by Adapta assay
[5] = target: Acetylcholinesterase (Homo sapiens) (UniProt P22303); assay: Inhibition of human recombinant acetylcholine esterase expressed in HEK293 cells at 10 uM using acetylcholine as substrate preincubated for 15 mins followed by substrate addition measured after 20 mins by spectrophotometric analysis relative to control
[6] = target: Alpha-1D adrenergic receptor (Homo sapiens) (UniProt P25100); assay: Displacement of [3H]prazosin from recombinant full length human alpha1d adrenergic receptor expressed in HEK293 cell membranes at 10 uM measured after 60 mins by scintillation counting method relative to control
[7] = target: Tyrosine-protein kinase Lck (Homo sapiens, UniProt P06239); assay: Inhibition of recombinant full length human His-tagged LCK expressed in baculovirus expression system using tyrosine-2 peptide as substrate incubated for 60 mins in presence of ATP by Z'-LYTE assay
[8] = target: Vasoactive intestinal polypeptide receptor 1 (Homo sapiens) (UniProt P32241); assay: Displacement of [125I]VIP from human HT-29 cells derived VIP1 at 10 uM after 60 mins by radiometric scintillation analysis relative to control; format: cell-based
SRSF protein kinase 2 = SRSF protein kinase 2 (Homo sapiens, UniProt P78362); assay: Inhibition of recombinant full length human GST-tagged SRPK2 expressed in baculovirus expression system using serine/threonine-07 peptide as substrate incubated for 60 mins in presence of ATP by Z'-LYTE assay
[9] = target: Serine/threonine-protein kinase PAK 4 (Homo sapiens, UniProt O96013); assay: Inhibition of recombinant human GST-tagged PAK4 catalytic domain (295 to 591 residues) expressed in baculovirus expression system using serine/threonine-20 peptide as substrate incubated for 60 mins in presence of ATP by Z'-LYTE assay
[10] = target: Melanocyte-stimulating hormone receptor (Homo sapiens) (UniProt Q01726); assay: Displacement of [125I]NDP-alpha-MSH from full length human recombinant MC1 receptor expressed in CHO-K1 cells at 10 uM measured after 120 mins by radiometric scintillation analysis relative to control; format: cell-based
[11] = target: Dual specificity protein kinase CLK3 (Homo sapiens, UniProt P49761); assay: Inhibition of recombinant full length human GST-tagged CLK3 expressed in baculovirus expression system using serine/threonine-18 peptide as substrate incubated for 60 mins in presence of ATP by Z'-LYTE assay
[12] = target: Protein kinase C eta type (Homo sapiens, UniProt P24723); assay: Inhibition of recombinant full length human His-tagged PRKCH expressed in baculovirus expression system using serine/threonine-7 peptide as substrate incubated for 60 mins in presence of ATP by Z'-LYTE assay
[13] = target: Mast/stem cell growth factor receptor Kit (Homo sapiens, UniProt P10721, T670I); assay: Inhibition of recombinant human His-tagged KIT (544 to 976 residues) harboring T670I mutant expressed in baculovirus expression system using tyrosine-6 peptide as substrate incubated for 60 mins in presence of ATP by Z'-LYTE assay
[14] = target: B1 bradykinin receptor (Homo sapiens) (UniProt P46663); assay: Inhibition of human B1 bradykinin receptor at 10 uM relative to control
[15] = target: Prostacyclin receptor (Homo sapiens) (UniProt P43119); assay: Inhibition of human prostanoid IP receptor at 10 uM relative to control
[16] = target: T1, Tyrosine-protein kinase JAK2; assay: Inhibition of human recombinant N-terminal GST tagged JAK2 JH1 catalytic domain (532 to 1132 residues) expressed in baculovirus expression system using Tyr6 peptide as measured after 1 hr in presence of ATP by Z'-LYTE assay
[17] = target: MAP kinase-activated protein kinase 5 (Homo sapiens, UniProt Q8IW41); assay: Inhibition of recombinant full length human His-tagged PRAK expressed in baculovirus expression system using serine/threonine-4 peptide as substrate incubated for 60 mins in presence of ATP by Z'-LYTE assay
[18] = target: Type-1 angiotensin II receptor (Homo sapiens) (UniProt P30556); assay: Displacement of [125I][Sar1,Ile8]-AT-II from full length human recombinant AT1 receptor expressed in CHOK1 cells at 10 uM measured after 120 mins by radiometric scintillation analysis relative to control; format: cell-based; settings: CHO-K1
[19] = target: Voltage-gated inwardly rectifying potassium channel KCNH2 (Homo sapiens, UniProt Q12809); assay: Inhibition of human ERG
[20] = target: Mitogen-activated protein kinase kinase kinase kinase 5 (Homo sapiens, UniProt Q9Y4K4); assay: Inhibition of recombinant full length human GST-tagged KHS1 expressed in baculovirus expression system using serine/threonine-7 peptide as substrate incubated for 60 mins in presence of ATP by Z'-LYTE assay
[21] = target: Ribosomal protein S6 kinase alpha-3 (Homo sapiens, UniProt P51812); assay: Inhibition of recombinant full length human His-tagged RSK2 expressed in baculovirus expression system using serine/threonine-6 peptide as substrate incubated for 60 mins in presence of ATP by Z'-LYTE assay
[22] = target: Neuropeptide Y receptor type 1 (Homo sapiens) (UniProt P25929); assay: Displacement of [[125I]peptide YY from full length human SK-N-MC cell-derived Y1 neuropeptide receptor at 10 uM measured after 60 mins by radiometric scintillation analysis relative to control; format: cell-based
[23] = target: Melanocortin receptor 3 (Homo sapiens) (UniProt P41968); assay: Displacement of [125I]NDP-alpha-MSH from full length human recombinant MC3 receptor expressed in HEK293 cells at 10 uM measured after 60 mins by radiometric scintillation analysis relative to control; format: cell-based
[24] = target: MAP kinase-activated protein kinase 3 (Homo sapiens, UniProt Q16644); assay: Inhibition of recombinant His-tagged human full length MAPKAPK3 expressed in baculovirus expression system using Ser/Thr-04 peptide as substrate after 1 hr in presence of ATP by Z'LYTE assay

T1 sequence (O60674 whole entry, the tested form may be a part): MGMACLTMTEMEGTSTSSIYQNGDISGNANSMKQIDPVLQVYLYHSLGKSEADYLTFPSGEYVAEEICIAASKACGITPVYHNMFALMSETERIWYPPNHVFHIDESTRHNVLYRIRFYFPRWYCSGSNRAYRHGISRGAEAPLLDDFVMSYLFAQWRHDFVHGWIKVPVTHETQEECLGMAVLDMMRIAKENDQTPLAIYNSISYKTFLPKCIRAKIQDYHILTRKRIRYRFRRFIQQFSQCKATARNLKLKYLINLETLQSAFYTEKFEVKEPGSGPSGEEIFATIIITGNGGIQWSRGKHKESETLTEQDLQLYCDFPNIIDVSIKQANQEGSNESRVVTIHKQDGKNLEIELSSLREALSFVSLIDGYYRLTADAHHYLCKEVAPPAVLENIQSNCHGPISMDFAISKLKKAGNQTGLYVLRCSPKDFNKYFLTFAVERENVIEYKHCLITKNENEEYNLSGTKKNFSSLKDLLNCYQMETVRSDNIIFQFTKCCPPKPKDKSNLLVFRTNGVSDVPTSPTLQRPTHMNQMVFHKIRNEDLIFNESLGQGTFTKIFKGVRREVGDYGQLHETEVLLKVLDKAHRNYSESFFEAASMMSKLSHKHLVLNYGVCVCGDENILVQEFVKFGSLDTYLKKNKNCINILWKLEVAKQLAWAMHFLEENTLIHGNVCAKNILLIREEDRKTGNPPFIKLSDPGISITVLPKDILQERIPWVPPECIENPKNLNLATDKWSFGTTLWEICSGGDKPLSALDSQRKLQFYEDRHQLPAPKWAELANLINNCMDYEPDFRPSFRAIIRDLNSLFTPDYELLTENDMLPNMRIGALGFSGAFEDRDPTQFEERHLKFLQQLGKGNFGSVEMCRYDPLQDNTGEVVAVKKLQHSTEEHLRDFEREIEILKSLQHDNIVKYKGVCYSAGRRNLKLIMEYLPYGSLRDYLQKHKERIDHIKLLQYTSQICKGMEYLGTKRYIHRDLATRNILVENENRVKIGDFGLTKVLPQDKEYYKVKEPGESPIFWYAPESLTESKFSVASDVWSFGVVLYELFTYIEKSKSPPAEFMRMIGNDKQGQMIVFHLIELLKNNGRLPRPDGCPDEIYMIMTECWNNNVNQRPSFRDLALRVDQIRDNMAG
Acetylcholinesterase (Homo sapiens), sequence (P22303 whole entry): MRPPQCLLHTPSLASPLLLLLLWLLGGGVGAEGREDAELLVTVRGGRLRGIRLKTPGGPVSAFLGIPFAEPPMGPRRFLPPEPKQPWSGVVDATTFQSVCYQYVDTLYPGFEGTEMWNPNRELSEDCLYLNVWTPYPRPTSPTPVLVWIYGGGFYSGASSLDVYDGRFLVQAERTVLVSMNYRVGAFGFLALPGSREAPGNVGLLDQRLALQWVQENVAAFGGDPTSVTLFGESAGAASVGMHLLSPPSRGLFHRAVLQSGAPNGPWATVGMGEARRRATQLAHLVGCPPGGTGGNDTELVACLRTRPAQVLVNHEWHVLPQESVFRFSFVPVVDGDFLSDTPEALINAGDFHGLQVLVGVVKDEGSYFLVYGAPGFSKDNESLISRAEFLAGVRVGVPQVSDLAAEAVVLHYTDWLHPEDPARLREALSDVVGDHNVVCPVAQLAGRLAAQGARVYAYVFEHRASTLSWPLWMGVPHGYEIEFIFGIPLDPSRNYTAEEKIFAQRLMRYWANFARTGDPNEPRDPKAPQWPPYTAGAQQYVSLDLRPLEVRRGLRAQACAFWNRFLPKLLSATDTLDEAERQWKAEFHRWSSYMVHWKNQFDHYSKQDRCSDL
Voltage-gated inwardly rectifying potassium channel KCNH2, sequence (Q12809 whole entry): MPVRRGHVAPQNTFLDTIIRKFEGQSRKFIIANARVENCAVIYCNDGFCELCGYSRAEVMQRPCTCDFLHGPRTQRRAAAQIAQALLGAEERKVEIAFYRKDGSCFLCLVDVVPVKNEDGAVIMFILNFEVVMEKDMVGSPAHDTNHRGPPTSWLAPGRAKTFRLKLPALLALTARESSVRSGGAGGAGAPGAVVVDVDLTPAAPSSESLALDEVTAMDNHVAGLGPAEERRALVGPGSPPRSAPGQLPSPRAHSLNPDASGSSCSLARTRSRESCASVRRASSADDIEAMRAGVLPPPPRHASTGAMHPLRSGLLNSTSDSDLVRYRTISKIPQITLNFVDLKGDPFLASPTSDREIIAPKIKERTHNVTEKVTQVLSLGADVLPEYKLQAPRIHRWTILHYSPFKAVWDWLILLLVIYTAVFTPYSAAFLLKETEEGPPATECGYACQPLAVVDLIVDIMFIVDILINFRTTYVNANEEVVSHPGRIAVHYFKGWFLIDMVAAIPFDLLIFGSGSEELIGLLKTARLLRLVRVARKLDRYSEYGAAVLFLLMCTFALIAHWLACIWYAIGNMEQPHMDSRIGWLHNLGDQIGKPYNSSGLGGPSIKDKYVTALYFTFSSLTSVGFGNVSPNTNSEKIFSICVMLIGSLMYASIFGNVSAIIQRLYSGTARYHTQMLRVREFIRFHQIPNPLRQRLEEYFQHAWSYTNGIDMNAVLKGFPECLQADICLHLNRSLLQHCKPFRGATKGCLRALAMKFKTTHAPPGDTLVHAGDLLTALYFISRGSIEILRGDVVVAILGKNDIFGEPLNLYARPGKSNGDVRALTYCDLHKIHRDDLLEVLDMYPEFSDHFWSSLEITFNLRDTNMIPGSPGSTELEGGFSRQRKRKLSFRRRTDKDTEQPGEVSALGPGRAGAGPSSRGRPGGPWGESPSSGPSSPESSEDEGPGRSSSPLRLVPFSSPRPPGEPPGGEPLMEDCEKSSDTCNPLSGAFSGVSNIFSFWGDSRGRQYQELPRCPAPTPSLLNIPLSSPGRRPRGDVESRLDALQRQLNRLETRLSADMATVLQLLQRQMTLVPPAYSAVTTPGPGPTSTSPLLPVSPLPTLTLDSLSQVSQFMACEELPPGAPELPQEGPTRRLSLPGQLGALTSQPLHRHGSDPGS
SRSF protein kinase 2, sequence (P78362 whole entry, the tested form may be a part): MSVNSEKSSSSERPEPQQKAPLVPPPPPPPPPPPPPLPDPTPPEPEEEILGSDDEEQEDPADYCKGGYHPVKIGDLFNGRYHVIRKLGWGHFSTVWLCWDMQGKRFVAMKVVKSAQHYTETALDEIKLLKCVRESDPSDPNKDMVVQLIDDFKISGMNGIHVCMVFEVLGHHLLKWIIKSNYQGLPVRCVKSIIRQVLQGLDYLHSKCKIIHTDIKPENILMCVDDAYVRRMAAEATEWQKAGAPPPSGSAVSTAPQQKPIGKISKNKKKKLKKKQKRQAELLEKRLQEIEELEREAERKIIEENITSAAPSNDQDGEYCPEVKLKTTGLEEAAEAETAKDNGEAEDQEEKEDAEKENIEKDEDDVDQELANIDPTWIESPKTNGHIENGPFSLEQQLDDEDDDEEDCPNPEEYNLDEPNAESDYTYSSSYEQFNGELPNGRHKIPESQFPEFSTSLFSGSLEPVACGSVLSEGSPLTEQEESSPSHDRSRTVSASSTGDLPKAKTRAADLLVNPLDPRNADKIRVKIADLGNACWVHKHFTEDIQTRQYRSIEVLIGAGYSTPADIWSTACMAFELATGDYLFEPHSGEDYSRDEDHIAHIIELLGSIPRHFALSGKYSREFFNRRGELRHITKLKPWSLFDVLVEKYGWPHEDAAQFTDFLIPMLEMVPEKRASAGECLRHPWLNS
MAP kinase-activated protein kinase 5, sequence (Q8IW41 whole entry): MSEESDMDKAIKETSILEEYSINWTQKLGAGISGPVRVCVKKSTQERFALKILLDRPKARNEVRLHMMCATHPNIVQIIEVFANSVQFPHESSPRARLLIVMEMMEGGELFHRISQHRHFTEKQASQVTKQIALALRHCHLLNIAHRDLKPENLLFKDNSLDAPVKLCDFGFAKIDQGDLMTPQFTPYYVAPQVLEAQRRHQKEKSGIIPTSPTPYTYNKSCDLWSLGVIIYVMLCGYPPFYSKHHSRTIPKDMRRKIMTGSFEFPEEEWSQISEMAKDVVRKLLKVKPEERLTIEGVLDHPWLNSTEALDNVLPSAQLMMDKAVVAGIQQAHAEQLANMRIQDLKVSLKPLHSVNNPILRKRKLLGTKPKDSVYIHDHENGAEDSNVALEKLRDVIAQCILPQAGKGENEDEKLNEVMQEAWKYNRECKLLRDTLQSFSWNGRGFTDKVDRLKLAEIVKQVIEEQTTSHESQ
Melanocortin receptor 3 (Homo sapiens), sequence (P41968 whole entry): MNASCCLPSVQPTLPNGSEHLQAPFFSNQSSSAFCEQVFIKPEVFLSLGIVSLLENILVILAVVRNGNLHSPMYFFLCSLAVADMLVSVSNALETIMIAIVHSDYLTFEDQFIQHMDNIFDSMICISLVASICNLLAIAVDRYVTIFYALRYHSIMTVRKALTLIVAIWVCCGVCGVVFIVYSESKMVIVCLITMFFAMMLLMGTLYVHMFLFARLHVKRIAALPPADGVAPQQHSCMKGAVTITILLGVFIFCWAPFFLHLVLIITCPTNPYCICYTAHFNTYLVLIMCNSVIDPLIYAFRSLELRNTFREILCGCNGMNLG
Serine/threonine-protein kinase PAK 4, sequence (O96013 whole entry, the tested form may be a part): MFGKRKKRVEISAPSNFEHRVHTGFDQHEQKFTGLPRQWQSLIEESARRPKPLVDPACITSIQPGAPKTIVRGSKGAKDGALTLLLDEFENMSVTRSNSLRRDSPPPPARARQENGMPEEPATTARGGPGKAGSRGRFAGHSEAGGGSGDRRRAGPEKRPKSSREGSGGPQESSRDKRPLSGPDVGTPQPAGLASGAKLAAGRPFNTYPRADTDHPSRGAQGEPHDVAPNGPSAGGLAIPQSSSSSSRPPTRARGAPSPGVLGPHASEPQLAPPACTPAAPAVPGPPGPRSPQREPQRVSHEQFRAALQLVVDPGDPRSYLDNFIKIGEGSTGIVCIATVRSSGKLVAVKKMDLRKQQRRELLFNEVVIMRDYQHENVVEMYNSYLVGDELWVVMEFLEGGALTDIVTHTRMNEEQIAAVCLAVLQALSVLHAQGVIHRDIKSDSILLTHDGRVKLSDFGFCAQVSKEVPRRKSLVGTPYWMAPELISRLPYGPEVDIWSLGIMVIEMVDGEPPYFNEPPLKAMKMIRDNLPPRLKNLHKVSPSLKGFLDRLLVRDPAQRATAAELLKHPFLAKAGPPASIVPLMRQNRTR

C[C@@H]1C[C@H]1C(=O)N1CCN(c2cnc(C#N)c(-c3cnn(C)c3)n2)C[C@H]1C
IC50 (Sphingosine kinase 1): 13.8 µM | IC50 [1]: > 100 µM | inhibition [2]: 7% | IC50 [3]: > 100 µM | IC50 [4]: > 100 µM | inhibition [5]: 37% | inhibition [6]: 5% | IC50 [7]: > 100 µM | inhibition [8]: 1% | IC50 (SRSF protein kinase 2): > 100 µM | IC50 [9]: > 100 µM | inhibition [10]: 3% | IC50 [11]: > 100 µM | IC50 [12]: > 100 µM | IC50 [13]: > 100 µM | inhibition [14]: -1% | inhibition [15]: -1% | IC50 [16]: > 100 µM | IC50 [17]: > 100 µM | inhibition [18]: -4% | IC50 [19]: 23 µM | IC50 [20]: 30.4 µM | IC50 [21]: 29.1 µM | inhibition [22]: 10% | inhibition [23]: 2% | IC50 [24]: 23.5 µM
